Where “and” joins values, the source holds several entries; their conditions need not be identical. Equal values may be shown once.
Key:
HEK293T cells = assay: MTT assay, HEK293T cells; type: cell-based, human; conditions: Supp. Fig.10 b; individual replicates; Ctrl about 100
Description: 1 Supplementary Figure 10. A57 is novel inhibitor of the CREB/CRTC2 protein complex.
2 a) The inhibitory-activity of A57 as determined by two-hybrid reporter assay. HEK293T cells were
3 co-transfected with CREB/CRTC2 two-hybrid reporter system plasmids, following incubation with
4 indicated small molecules (10 µM) overnight before luciferase reporter assays (n=4 per treatment).
5 One of three independent experiments is shown here. Data are represented as mean ± SEM. *,
6 p < 0.05; **, p < 0.01; p values were determined by one-way ANOVA followed Dunnett’s multiple
8 b) Combinatorial analysis of the cell toxicity and inhibitory activity of A57. The CREB/CRTC2-two
9 hybrid reporter activity (as a normalized percentage) is the X-axis, and the cell activity tested by MTT
10 assay (as a normalized percentage) is the Y-axis. n=3.
11 c) Immunoblot of P-CREB and CRTC2 de-phosphorylation in primary hepatocytes incubated with
12 A57 and APC (10 µM) 1-h prior to glucagon (100 nM) stimulation for 30 min. One result from three
13 experiments is shown here (top), and relative P-CREB normalized by CREB is presented as a bar
14 graph (bottom, n=3). […]
15 values were determined by two-way ANOVA followed Bonferroni’s multiple comparisons test. […]
18 as mean ± SEM. ns, p > 0.05; *, p < 0.05; **, p < 0.01; p values were determined by two-way ANOVA […]

[1] = test system: gluconeogenic and lipogenic gene mRNA in primary hepatocytes; assay: Quantitative PCR of gene expression in primary hepatocytes; type: cell-based, mouse; set-up: key to Lxra mRNA levels: mRNA level normalized to ribosomal L32 mRNA (internal control); key to Crtc2 mRNA levels / Srebf-1c mRNA levels / Srebf-2 mRNA levels / mRNA levels of G6pc / mRNA levels of CREB / mRNA levels of CRTC2: relative mRNA level, normalized to ribosomal L32; conditions: for Lxra mRNA levels, Mean / Srebf-2 mRNA levels, Mean / Srebf-1c mRNA levels, Mean / Crtc2 mRNA levels, Mean / Crtc2 mRNA levels / Lxra mRNA levels / Srebf-1c mRNA levels / Srebf-2 mRNA levels: Figure 7f; for Lxra mRNA levels, Mean / Srebf-2 mRNA levels, Mean / Srebf-1c mRNA levels, Mean / Crtc2 mRNA levels, Mean: mean of N=3; for Crtc2 mRNA levels / Lxra mRNA levels / Srebf-1c mRNA levels / Srebf-2 mRNA levels / mRNA levels of G6pc / mRNA levels of Pck1: single replicates; for mRNA of G6pc, mean / mRNA of Pck1, mean / mRNA levels of G6pc / mRNA levels of Pck1: Figure 9d; for mRNA of G6pc, mean / mRNA of Pck1, mean: group mean, N 6; for mRNA levels of CREB / mRNA levels of CRTC2 / mRNA levels of CREB, group mean (Mean 2) / mRNA levels of CRTC2, group mean (Mean 2): Supp. Fig.10 d; for mRNA levels of CREB / mRNA levels of CRTC2: individual replicates; for mRNA levels of CREB, group mean (Mean 2) / mRNA levels of CRTC2, group mean (Mean 2): n=6
Description: Total RNA from cells and tissues was extracted by Trizol (Invitrogen) and reverse-transcribed into cDNA using the prime script RT reagent kit with gDNA eraser (Takara). The mRNA levels were determined using the SYBR-green PCR kit (Takara) with ABIPRISM 7900HT Sequence detector (ABI) according to the manufacturer’s protocol. The quantitative qPCR primers used in this work are listed in Supplementary Table 1. Ribosomal L32 mRNA levels were used as an internal control.

For `CC(C)=CCc1cc(C=CC(=O)O)cc(CC=C(C)C)c1O` [APC, 3,5-diprenyl-4-hydroxycinnamic acid], the Cell activity % (HEK293T cells) was 95.723% and 93.186% and 92.837%, the “Lxra mRNA levels, Mean” value ([1]; LV-CRTC2(S171A), Ctrl mean 1.393) was 0.7111 and the “Srebf-2 mRNA levels, Mean” value ([1]; LV-CRTC2(S171A), Ctrl mean 1.711) was 0.86. For the same molecule, the “Srebf-1c mRNA levels, Mean” value ([1]; LV-CRTC2(S171A), Ctrl mean 1.819) was 1.166, the “Crtc2 mRNA levels, Mean” value ([1]; LV-CRTC2(S171A), Ctrl mean 153.3) was 159.3 and the “Crtc2 mRNA levels” value ([1]; LV-Crtc2-S171A) was 189.700 and 115.000 and 173.200. For the same molecule, the “Lxra mRNA levels” value ([1]; LV-Crtc2-S171A) was 0.732 and 0.747 and 0.654, the “Srebf-1c mRNA levels” value ([1]; LV-Crtc2-S171A) was 1.132 and 1.102 and 1.263 and the “Srebf-2 mRNA levels” value ([1]; LV-Crtc2-S171A) was 0.860 and 0.819 and 0.901. The “Crtc2 mRNA levels, Mean” value ([1]; LV-GFP, Ctrl mean 0.9233) was 1.106, the “Lxra mRNA levels, Mean” value ([1]; LV-GFP, Ctrl mean 0.93) was 0.8542 and the “Srebf-2 mRNA levels, Mean” value ([1]; LV-GFP, Ctrl mean 0.9967) was 1.087. The “Srebf-1c mRNA levels, Mean” value ([1]; LV-GFP, Ctrl mean 1.053) was 0.9578, the “Crtc2 mRNA levels” value ([1]; LV-Gfp) was 1.240 and 0.976 and 1.101 and the “Lxra mRNA levels” value ([1]; LV-Gfp) was 0.950 and 0.709 and 0.904. The “Srebf-1c mRNA levels” value ([1]; LV-Gfp) was 0.940 and 1.083 and 0.850, the “Srebf-2 mRNA levels” value ([1]; LV-Gfp) was 1.040 and 1.162 and 1.060 and the “mRNA of G6pc, mean” value ([1]; +Gluc) was 73.01. The “mRNA of Pck1, mean” value ([1]; +Gluc) was 64.35, the “mRNA levels of G6pc” value ([1]; +Gluc) was 67.250 and 68.919 and 73.819 and 74.050 and 79.623 and 74.414 and the “mRNA levels of Pck1” value ([1]; +Gluc) was 68.035 and 58.064 and 57.318 and 65.734 and 69.952 and 67.024. For the same molecule, the “mRNA of G6pc, mean” value ([1]; -Gluc) was 0.2875, the “mRNA of Pck1, mean” value ([1]; -Gluc) was 0.3152 and the “mRNA levels of G6pc” value ([1]; -Gluc) was 0.207 and 0.251 and 0.273 and 0.385 and 0.234 and 0.375. For the same molecule, the “mRNA levels of Pck1” value ([1]; -Gluc) was 0.283 and 0.267 and 0.371 and 0.342 and 0.306 and 0.322, the “mRNA levels of CREB” value ([1]; +Gluc) was 0.685 and 0.852 and 0.9121 and 0.8012 and 0.8061 and 0.6905 and the “mRNA levels of CRTC2” value ([1]; +Gluc) was 0.8083 and 0.8216 and 1.1926 and 0.9078 and 0.9957 and 1.2399. The “mRNA levels of CREB, group mean (Mean 2)” value ([1]; +Gluc, Ctrl mean 0.8616) was 0.7912, the “mRNA levels of CRTC2, group mean (Mean 2)” value ([1]; +Gluc, Ctrl mean 0.8879) was 0.9943 and the “mRNA levels of CREB” value ([1]; -Gluc) was 0.9172 and 0.8231 and 0.8735 and 0.9451 and 0.728 and 1.0773. For the same molecule, the “mRNA levels of CRTC2” value ([1]; -Gluc) was 1.0775 and 1.0279 and 1.0015 and 1.1906 and 1.0107 and 1.2086, the “mRNA levels of CREB, group mean (Mean 2)” value ([1]; -Gluc, Ctrl mean 0.9538) was 0.894 and the “mRNA levels of CRTC2, group mean (Mean 2)” value ([1]; -Gluc, Ctrl mean 1.009) was 1.086. For the same molecule, the “mRNA levels of Lxrα, Srebf1 and Srebf2 with overexpressed Crtc2-S171A” value ([1]; primary hepatocytes, APC 10 μM, 8-h) was “effectively reduced” and the “mRNA accumulation of G6pc, Pck1 and Pgc-1α induced by glucagon” value ([1]; primary hepatocytes, APC 1, 5 or 50 μM) was “remarkably decreased”.

From publication PMC8752738, “A propolis-derived small molecule ameliorates metabolic syndrome in obese mice by targeting the CREB/CRTC2 transcriptional complex” (Nature Communications, 2022)
